Tests used:
Assay type in all cases: cell-based, human
[1] = test system: senescent foreskin cells; assay: survival of senescent foreskin cells treated with medium supernatant (secreted fluid) of compound-killed cells (Example 13, Tables 68, 69); details: culture medium supernatant from dying senescent cells treated with compound at 30 μM, 90 μM or 270 μM; senescent foreskin cells
[2] = test system: HMGN1; assay: HMGN1 ELISA in culture medium of foreskin cells (Examples 10, 11; Tables 62, 63, 64); details: 30 μM test compound, doxorubicin-treated foreskin cells, DMSO = 100
[3] = test system: HMGN1; assay: HMGN1 ELISA in culture medium of A549 cancer cells (Example 12, Table 66); details: doxorubicin-induced senescent A549 cells, ELISA, DMSO = 100
[4] = test system: foreskin cells in which senescence was induced by doxorubicin; assay: CellTiter-Glo cell viability of doxorubicin-induced senescent foreskin cells (Examples 1-2, 10, 11, 13; Tables 4, 63, 65); details: doxorubicin-induced senescent foreskin cells, CellTiter-Glo, 0 μM = 100
[5] = test system: A549; assay: CellTiter-Glo cell viability of senescent A549 cancer cells (Example 12, Table 67); details: doxorubicin-induced senescent A549 cancer cells, CellTiter-Glo

| Compound | Survival [1] | HMGN1 [2] | HMGN1 (amount of HMGN1 secreted in the cell culture) ([3]; test compound 30 μM) | Survival (%) ([4]; 1.1 μM test compound) | Survival (%) ([4]; 10 μM test compound) | Survival (%) ([4]; 30 μM test compound) | Survival (%) ([4]; […] test compound) | Survival (%) ([5]; 1.1 μM test compound) | Survival (%) ([5]; 10 μM test compound) | Survival (%) ([5]; 30 μM test compound) | HMGN1 (amount of HMGN1 secreted in the cell culture) ([3]; test compound 90 μM) | Survival (%) ([5]; 90 μM test compound) |
| --- | --- | --- | --- | --- | --- | --- | --- | --- | --- | --- | --- | --- |
| CC(N)(Cc1ccc(O)cc1)C(=O)O (racemic) [LX-3206, Racemetyrosine, reference compound] | 51.9 | 222 | 215 | 95.8 | 64.7 | 21.3 | 96 | 92.6 | 51.9 | 5.7 | – | – |
| O=C(O)CC([S-])C(=O)O.[Au+] (stereo not drawn) [LX-202, Aurothiomalate, reference compound] | 45.7 | 287 | 327 | 97.4 | – | – | 7.6 | 96.7 | 37.3 | – | – | – |
| CN1CC[C@@H](Nc2cccc3c2cc(-c2noc(CNC(=O)c4cnn(C(C)(C)C)c4)n2)n3CC(F)(F)F)[C@@H](F)C1 [LX-915] | 53.1 | 297 | – | 94.7 | 72.8 | 8.5 | 83.2 | 94.7 | 86.9 | 84.9 | 229 | 6.8 |
| Cc1nnc(NC(=O)c2nc(S(=O)(=O)Cc3ccc(F)cc3)ncc2Cl)s1 [LX-916] | 48.7 | 317 | – | 103.5 | 54.5 | 3.5 | 94.2 | 103.9 | 71.7 | 24.4 | 198 | 1.7 |
| CS(=O)(=O)c1ncc(Cl)c(C(=O)O)n1 [LX-917] | 42.5 | 269 | – | 101.8 | 45.8 | 4.7 | 93.2 | 101.5 | 65.7 | 17.1 | 223 | 3.5 |
| CC1=C(C)C(=O)C(CCCCCCCCCC[P+](c2ccccc2)(c2ccccc2)c2ccccc2)=CC1=O.[Br-] [LX-1205] | 53.4 | 279 | 279 | 0.1 | – | – | – | 34.2 | – | – | – | – |
| O=C(NCCCCCCCCCC[P+](c1ccccc1)(c1ccccc1)c1ccccc1)c1nn(Cc2ccc(Cl)cc2Cl)c2ccccc12.[Br-] [LX-1207] | 62.7 | 285 | 318 | 36.8 | – | – | 10 | 59.8 | – | – | – | – |
| C[Si](C)(Cc1ccc(F)cc1)CN1CCCCC1.Cl [LX-1407, Silperisone, reference compound] | 69.9 | 232 | 175 | 99.4 | 72.8 | 19.9 | 95.9 | 101.5 | 71.7 | 39.4 | – | – |
| C[C@@H]1C(=O)C(C#N)=C[C@]2(c3ccccc3)c3c(c(-c4cncnc4)nn3C)CC[C@@H]12 [LX-2408] | 55.2 | 297 | 329 | 85.9 | – | – | 37.5 | 96.5 | 15.9 | – | – | – |

Reference: US20250108036A1, “COMPOSITIONS FOR REMOVING SENESCENT CELLS AND USES THEREOF” (LIFECEUTIX CO., LTD., priority 2021, published 2025)
